Assay: xn = mol fraction of the nth substance listed
Details: 101 kPa, Liquid

OCCO [1,2-ethanediol] + CCCCn1cc[n+](C)c1.F[B-](F)(F)F
x2 = 0
Details | mass density [kg/m3] | viscosity [mPa·s]
293.15 K | 1113.45 | 21.44
303.15 K | 1106.45 | 14.33
313.15 K | 1099.38 | 10.01
323.15 K | 1092.24 | 7.121
333.15 K | 1085 | 5.33
343.15 K | 1077.65 | 4.103
353.15 K | 1070.17 | 3.242

CCCCn1cc[n+](C)c1.F[B-](F)(F)F [1-butyl-3-methylimidazolium tetrafluoroborate] + OCCO
Details | mass density [kg/m3] | viscosity [mPa·s]
293.15 K, x1 = 0.0895 | 1133.64 | 19.89
293.15 K, x1 = 0.1758 | 1147.86 | 19.29
293.15 K, x1 = 0.3578 | 1167.8 | 23.44
293.15 K, x1 = 0.4397 | 1174.28 | 23.39
293.15 K, x1 = 0.6482 | 1187.63 | 39.69
293.15 K, x1 = 0.8121 | 1196.19 | 68.29
293.15 K, x1 = 1 | 1204.44 | 136.9
298.15 K, x1 = 0.0895 | 1129.95 | –
298.15 K, x1 = 0.1758 | 1144.07 | –
298.15 K, x1 = 0.3578 | 1163.96 | –
298.15 K, x1 = 0.4397 | 1170.46 | –
298.15 K, x1 = 0.6482 | 1183.91 | –
298.15 K, x1 = 0.8121 | 1192.56 | –
298.15 K, x1 = 1 | 1200.89 | –
303.15 K, x1 = 0.0895 | 1126.26 | 12.66
303.15 K, x1 = 0.1758 | 1140.28 | 12.72
303.15 K, x1 = 0.3578 | 1160.12 | 15.48
303.15 K, x1 = 0.4397 | 1166.64 | 17.5
303.15 K, x1 = 0.6482 | 1180.21 | 26.17
303.15 K, x1 = 0.8121 | 1188.95 | 41.88
303.15 K, x1 = 1 | 1197.34 | 81.4
313.15 K, x1 = 0.0895 | 1118.86 | 8.881
313.15 K, x1 = 0.1758 | 1132.71 | 8.902
313.15 K, x1 = 0.3578 | 1152.49 | 10.87
313.15 K, x1 = 0.4397 | 1159.07 | 12.33
313.15 K, x1 = 0.6482 | 1172.85 | 18.29
313.15 K, x1 = 0.8121 | 1181.74 | 28.17
313.15 K, x1 = 1 | 1190.27 | 51.79
323.15 K, x1 = 0.0895 | 1111.43 | 6.422
323.15 K, x1 = 0.1758 | 1125.13 | 6.528
323.15 K, x1 = 0.3578 | 1144.89 | 8.034
323.15 K, x1 = 0.4397 | 1151.54 | 9.112
323.15 K, x1 = 0.6482 | 1165.56 | 13.41
323.15 K, x1 = 0.8121 | 1174.6 | 20.62
323.15 K, x1 = 1 | 1183.24 | 35.23
333.15 K, x1 = 0.0895 | 1103.95 | 4.88
333.15 K, x1 = 0.1758 | 1117.55 | 4.971
333.15 K, x1 = 0.3578 | 1137.35 | 6.16
333.15 K, x1 = 0.4397 | 1144.07 | 7.005
333.15 K, x1 = 0.6482 | 1158.32 | 10.2
333.15 K, x1 = 0.8121 | 1167.55 | 14.84
333.15 K, x1 = 1 | 1176.25 | 24.97
343.15 K, x1 = 0.0895 | 1096.42 | 3.807
343.15 K, x1 = 0.1758 | 1109.96 | 3.909
343.15 K, x1 = 0.3578 | 1129.84 | 4.87
343.15 K, x1 = 0.4397 | 1136.64 | 5.552
343.15 K, x1 = 0.6482 | 1151.14 | 8.019
343.15 K, x1 = 0.8121 | 1160.56 | 11.41
343.15 K, x1 = 1 | 1169.32 | 18.49
353.15 K, x1 = 0.0895 | 1088.83 | 2.872
353.15 K, x1 = 0.1758 | 1102.35 | 3.163
353.15 K, x1 = 0.3578 | 1122.35 | 3.932
353.15 K, x1 = 0.4397 | 1129.25 | 5.153
353.15 K, x1 = 0.6482 | 1144 | 6.479
353.15 K, x1 = 0.8121 | 1153.54 | 8.692
353.15 K, x1 = 1 | 1162.44 | 14.37

CCCCn1cc[n+](C)c1.F[B-](F)(F)F [1-butyl-3-methylimidazolium tetrafluoroborate] + C[S+](C)[O-]
Details | mass density [kg/m3] | viscosity [mPa·s]
293.15 K, x1 = 0.0722 | 1120.91 | 3.514
293.15 K, x1 = 0.1764 | 1142.23 | 6.283
293.15 K, x1 = 0.2145 | 1148.47 | 7.911
293.15 K, x1 = 0.3225 | 1162.89 | 13.46
293.15 K, x1 = 0.4189 | 1172.83 | 20.76
293.15 K, x1 = 0.607 | 1186.94 | 42.17
293.15 K, x1 = 0.6557 | 1188.45 | 48.88
293.15 K, x1 = 0.8283 | 1197.44 | 83.33
293.15 K, x1 = 0.9155 | 1201.03 | 107.2
293.15 K, x1 = 1 | 1204.44 | 136.9
298.15 K, x1 = 0.0722 | 1116.22 | –
298.15 K, x1 = 0.1764 | 1137.84 | –
298.15 K, x1 = 0.2145 | 1144.16 | –
298.15 K, x1 = 0.3225 | 1158.77 | –
298.15 K, x1 = 0.4189 | 1168.84 | –
298.15 K, x1 = 0.607 | 1182.57 | –
298.15 K, x1 = 0.6557 | 1185.38 | –
298.15 K, x1 = 0.8283 | 1193.78 | –
298.15 K, x1 = 0.9155 | 1197.43 | –
298.15 K, x1 = 1 | 1200.89 | –
303.15 K, x1 = 0.0722 | 1111.54 | 2.827
303.15 K, x1 = 0.1764 | 1133.45 | 4.839
303.15 K, x1 = 0.2145 | 1139.87 | 5.968
303.15 K, x1 = 0.3225 | 1154.66 | 9.732
303.15 K, x1 = 0.4189 | 1164.85 | 14.46
303.15 K, x1 = 0.607 | 1179.32 | 27.68
303.15 K, x1 = 0.6557 | 1181 | 31.52
303.15 K, x1 = 0.8283 | 1190.12 | 51.43
303.15 K, x1 = 0.9155 | 1193.83 | 64.87
303.15 K, x1 = 1 | 1197.34 | 81.4
313.15 K, x1 = 0.0722 | 1102.21 | 2.324
313.15 K, x1 = 0.1764 | 1124.71 | 3.845
313.15 K, x1 = 0.2145 | 1131.31 | 4.668
313.15 K, x1 = 0.3225 | 1146.47 | 7.347
313.15 K, x1 = 0.4189 | 1156.91 | 10.58
313.15 K, x1 = 0.607 | 1171.76 | 19.29
313.15 K, x1 = 0.6557 | 1173.63 | 21.66
313.15 K, x1 = 0.8283 | 1182.84 | 33.94
313.15 K, x1 = 0.9155 | 1186.65 | 42.14
313.15 K, x1 = 1 | 1190.27 | 51.79
323.15 K, x1 = 0.0722 | 1092.89 | 1.951
323.15 K, x1 = 0.1764 | 1116.01 | 3.137
323.15 K, x1 = 0.2145 | 1122.79 | 3.767
323.15 K, x1 = 0.3225 | 1138.33 | 5.742
323.15 K, x1 = 0.4189 | 1149.02 | 8.052
323.15 K, x1 = 0.607 | 1164.25 | 14.12
323.15 K, x1 = 0.6557 | 1166.3 | 15.79
323.15 K, x1 = 0.8283 | 1175.62 | 25.01
323.15 K, x1 = 0.9155 | 1179.53 | 29.99
323.15 K, x1 = 1 | 1183.24 | 38.04
333.15 K, x1 = 0.0722 | 1083.58 | 1.668
333.15 K, x1 = 0.1764 | 1107.34 | 2.615
333.15 K, x1 = 0.2145 | 1114.3 | 3.118
333.15 K, x1 = 0.3225 | 1130.22 | 4.618
333.15 K, x1 = 0.4189 | 1141.18 | 6.327
333.15 K, x1 = 0.607 | 1156.79 | 10.69
333.15 K, x1 = 0.6557 | 1158.97 | 11.78
333.15 K, x1 = 0.8283 | 1168.44 | 17.38
333.15 K, x1 = 0.9155 | 1172.45 | 20.96
333.15 K, x1 = 1 | 1176.25 | 24.97
343.15 K, x1 = 0.0722 | 1074.29 | 1.447
343.15 K, x1 = 0.1764 | 1098.7 | 2.222
343.15 K, x1 = 0.2145 | 1105.83 | 2.638
343.15 K, x1 = 0.3225 | 1122.16 | 3.801
343.15 K, x1 = 0.4189 | 1133.38 | 5.104
343.15 K, x1 = 0.607 | 1149.37 | 8.359
343.15 K, x1 = 0.6557 | 1151.6 | 8.977
343.15 K, x1 = 0.8283 | 1161.32 | 13.21
343.15 K, x1 = 0.9155 | 1165.43 | 15.78
343.15 K, x1 = 1 | 1169.32 | 18.49
353.15 K, x1 = 0.0722 | 1064.99 | 1.272
353.15 K, x1 = 0.1764 | 1090.08 | 1.918
353.15 K, x1 = 0.2145 | 1097.39 | 2.278
353.15 K, x1 = 0.3225 | 1114.12 | 3.195
353.15 K, x1 = 0.4189 | 1125.62 | 4.21
353.15 K, x1 = 0.607 | 1141.99 | 6.702
353.15 K, x1 = 0.6557 | 1144.28 | 7.182
353.15 K, x1 = 0.8283 | 1154.24 | 10.34
353.15 K, x1 = 0.9155 | 1158.44 | 12.24
353.15 K, x1 = 1 | 1162.44 | 14.37

C[S+](C)[O-] [dimethyl sulfoxide] + CCCCn1cc[n+](C)c1.F[B-](F)(F)F
x2 = 0
Details | mass density [kg/m3] | viscosity [mPa·s]
293.15 K | 1100.76 | 2.21
298.15 K | 1095.74 | –
303.15 K | 1090.73 | 1.843
313.15 K | 1080.69 | 1.556
323.15 K | 1070.66 | 1.337
333.15 K | 1060.63 | 1.165
343.15 K | 1050.58 | 1.028
353.15 K | 1040.51 | 0.917
